Measurements reported in patent EP0630366B1, “SUBSTITUTED HETEROCYCLIC DERIVATIVES USEFUL AS PLATELET AGGREGATION INHIBITORS” (G.D. Searle & Co., priority 1991, dated 1993).

What follows are compounds tested on platelet aggregation (assay: In-vitro platelet aggregation in PRP (ADP-induced)). Conditions: Canis lupus familiaris; at 10^-5; dog platelet-rich plasma, ADP-induced aggregation; read-out: Dog PRP IC50 (cell prints inhibition at a single concentration).
Assay type: cell-based, dogs
Protocol: Healthy male or female dogs were fasted for 8 hours prior to drawing blood; then 30 ml whole blood was collected using a butterfly needle and 30 cc plastic syringe with 3 ml of 0.129 M buffered sodium citrate (3.8%). The syringe was rotated carefully as blood was drawn to mix the citrate. Platelet-rich plasma (PRP) was prepared by centrifugation at 975 x g for 3.17 minutes at room temperature allowing the centrifuge to coast to a stop without braking. The PRP was removed from the blood with a plastic pipette and placed in a plastic capped, 50 mL Corning conical sterile centrifuge tube which was held at room temperature. Platelet poor plasma (PPP) was prepared by centrifuging the remaining blood at 2000 x g for 15 minutes at room temperature allowing the centrifuge to coast to a stop without braking. The PRP was adjusted with PPP to a count of 2-3 x 10^8 platelets per mL. 400 uL of the PRP preparation and 50 uL of the compounds solution to be tested or saline were preincubated for 1 minute at 37°C in a BioData, Horsham, PA). 50 uL of adenosine 5' diphosphate (ADP) (50 um final concentration) was added to the cuvettes and the aggregation was monitored for 1 minute. All compounds are tested in duplicate. Results are calculated as follows: Percent of control = [(maximal OD minus initial OD of compound) divided by (maximal OD minus initial OD of control saline)] x 100. The % inhibition = 100 - (percent of control).
The compounds tested and their median inhibitory concentrations (IC50) are recorded in Table I. IC50's (dosage at which 50% of platelet aggregation is inhibited) were calculated by linear regression of the dose response curve.

Row | Compound | inhibition at 10 µM [%]
1 | N=C(N)c1ccc(NC(=O)C2CCCCC2C(=O)NC(CC(=O)O)c2cccnc2)cc1 (stereo not drawn) [Example 14] | 0

Same assay, conditions: Canis lupus familiaris; dog platelet-rich plasma, ADP 50 um final concentration; IC50 by linear regression of the dose response curve

Row | Compound | IC50 [µM]
2 | N=C(N)c1ccc(NC(=O)CCC(=O)NC(CC(=O)O)c2ccccn2)cc1 (stereo not drawn) [Example 8] | 0.29
3 | N=C(N)c1ccc(NC(=O)CCC(=O)NC(CC(=O)O)c2ccncc2)cc1 (stereo not drawn) [Example 10] | 0.16
4 | N=C(N)c1ccc(NC(=O)C2CC2C(=O)NC(CC(=O)O)c2cccnc2)cc1 (single isomer, unassigned; isomer 2) [Example 27] | > 10
5 | N=C(N)c1ccc(NC(=O)CCC(=O)NC(CC(=O)O)c2ccc3c(c2)OCO3)cc1 (stereo not drawn) [Example 20, β-[[4-[[4-(aminoiminomethyl)phenyl]amino]-1,4-dioxobutyl]amino]-1,3-benzodioxole-5-propanoic acid] | 0.068
6 | N=C(N)c1ccc(NC(=O)CCC(=O)N[C@@H](CC(=O)O)c2cccnc2)cc1 [Example 5, βS-[[4-[[4-(aminoiminomethyl)phenyl]amino]-1,4-dioxobutyl]amino]-3-pyridinepropanoic acid] | 0.047
7 | N=C(N)c1ccc(NC(=O)CCC(=O)NC(CC(=O)O)c2cccnc2)cc1 (racemic) [Example 2, D,L-β-[[4-[[4-(aminoiminomethyl)phenyl]amino]-1,4-dioxobutyl]amino]-3-pyridinepropanoic acid] | 0.093
8 | N=C(N)c1ccc(NC(=O)CCC(=O)NC(CC(=O)O)c2cc3c(cc2[N+](=O)[O-])OCO3)cc1 (stereo not drawn) [Example 34] | 1.2
9 | N=C(N)c1ccc(NC(=O)CCC(=O)NC(CC(=O)O)c2cncnc2)cc1 (stereo not drawn) [Example 22] | 0.059
10 | CCOC(=O)CC(NC(=O)CCC(=O)Nc1ccc(C(=N)N)cc1)c1cc2c(cc1[N+](=O)[O-])OCO2 (stereo not drawn) [Example 21] | > 10

Same assay, conditions: dog platelet-rich plasma, ADP 50 um final concentration; IC50 by linear regression of the dose response curve

Row | Compound | IC50 [µM]
11 | (±) [[[4-[[4-(aminoiminomethyl)phenyl]-amino]-1,4-dioxo-(2E)-butenyl]amino]-3-pyridinepropanoic acid [Example 29] | 0.11
12 | Ethyl β-[[4-[[4-(aminoiminomethyl)phenyl]amino]1,4-dioxobutyl]amino]-1,3-benzodioxole-5-propanoate (isomer 1) [Example 31] | 7.3
13 | (±)-1[[[4-[[4-(aminoiminomethyl)phenyl]amino]-1,4-dioxo-(2Z)-butenyl]amino]-3-pyridinepropanoic acid [Example 30] | > 10
14 | β-[[4-[[4-(aminoiminomethyl)phenyl]amino]-1,4-dioxobutyl]amino]-1,3-benzodioxole-5-propanoic acid [Example 33] | 6.8
15 | Ethyl β-[[4-[[4-aminoiminomethyl) phenyl]amino]-1,4-dioxobutyl]amino]-1,3-benzodioxole-5-propanoate [Example 19] | > 10
16 | βR-[[4-[[4-(aminoiminomethyl)phenyl]amino]-1,4-dioxobutyl]amino]-3-pyridinepropanoic acid [Example 7] | 4.8
17 | β-[[4-[[4-(aminoiminomethyl)phenyl]amino]-1,4-dioxobutyl]amino]-2-thiophenepropanoic acid [Example 18] | 0.12
18 | β-[[4-[[3-(aminoiminomethyl)phenyl]amino]-1,5-dioxopentyl]amino]-3-pyridinepropanoic acid [Example 3] | > 10

The compounds below were run on collagen induced platelet aggregation (assay: Inhibition of ex vivo collagen induced platelet aggregation after administration to dogs). Conditions: after 24 hours, administered orally to dogs at a dose of 20 mg/kg.
Assay type: in vivo, dogs (Beagles)
Protocol: The purpose of this assay is to determine the effects of antiplatelet compounds on ex vivo collagen induced platelet aggregation when administered either intravenously or orally to dogs.
Pretreatment (control) blood samples are drawn from either conscious or anesthetized dogs (Beagles) and centrifuged to prepare platelet rich plasma (PRP). Aggregatory response to collagen is measured in a aggregometer and used as Control. Compounds are administered, either intragasterically (either by capsule or stomach tube or intravenously). Blood samples are drawn at predetermined intervals after compound administration, PRP prepared and aggregation to collagen determined. Compound inhibition of aggregation is determined by comparing the aggregation response after compound administration to the pretreatment response. The study is continued for a maximum of 24 hours or until the platelet aggregation returns to control levels. (If aggregation is still inhibited after 7 hours, a blood sample is drawn the following morning and tested.) Duration of activity is determined by the length of time platelet aggregation is inhibited after compound administration.

Row | Compound | inhibited platelet aggregation
19 | Ethyl-β-[[4-[[4-(aminoiminomethyl)phenyl] amino]-1,4-dioxobutyl]amino]-3-pyridinepropanoate [Example 1] | up to 100%
20 | β-[[4-[[4-(aminoiminomethyl)phenyl]amino]-1,4-dioxobutyl]amino]-2-furanpropanoic acid [Example 16] | up to 100%
21 | CCOC(=O)C[C@H](NC(=O)CCC(=O)Nc1ccc(C(=N)N)cc1)c1cccnc1 [Example 4, Ethyl βS-[[4-[[4-(aminoiminomethyl)phenyl]amino]-1,4-dioxobutyl]amino]-3-pyridinepropanoate] | up to 100%
